{"source": "patent US6613920B1", "about": "“Vitamin D derivatives with carbo- or heterocyclic substituents at C-25, process for their production, intermediate products and use for the production of pharmaceutical agents” (Schering Aktiengesellschaft, priority 1996, dated 2003)", "key": {"[1]": {"molecular_target": "T1, calcitriol receptor (specific receptor protein from the intestines of juvenile pigs) (Sus scrofa, UniProt A3RGC1)", "T1 construct": "a specific receptor protein from the intestines of juvenile pigs; from tissue; host or cells: intestines of juvenile pigs", "T1 sequence (A3RGC1 1-427)": "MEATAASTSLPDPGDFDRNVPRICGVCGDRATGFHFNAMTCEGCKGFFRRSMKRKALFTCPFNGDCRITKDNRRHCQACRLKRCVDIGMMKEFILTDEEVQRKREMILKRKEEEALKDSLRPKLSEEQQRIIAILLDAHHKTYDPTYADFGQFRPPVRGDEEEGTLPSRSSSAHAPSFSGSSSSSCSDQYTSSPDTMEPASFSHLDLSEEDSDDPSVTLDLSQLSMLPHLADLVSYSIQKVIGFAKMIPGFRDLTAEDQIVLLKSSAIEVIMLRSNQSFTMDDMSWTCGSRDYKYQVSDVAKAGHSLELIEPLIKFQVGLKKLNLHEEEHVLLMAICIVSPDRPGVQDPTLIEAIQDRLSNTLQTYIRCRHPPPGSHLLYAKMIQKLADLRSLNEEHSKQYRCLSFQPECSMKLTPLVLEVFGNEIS", "assay": "calcitriol-receptor test (competition with 3H-calcitriol)", "type": "binding, pig", "conditions": "KF = concentration of test substance / concentration of calcitriol at 50% competition", "procedure": "It is carried out using a specific receptor protein from the intestines of juvenile pigs.\n250 μl of a charcoal-dextran suspension is fed to each test tube and incubated at 4° C. for 20 minutes. Then, the samples are centrifuged at 10,000×g for 5 minutes at 4° C. The supernatant is decanted and measured in a β-counter after 1 hour of equilibration in Picofluor 15™.\nIt is defined as a quotient of the concentrations of the respective test substance and the reference substance, which are necessary for 50% competition:\nKF=Concentration of test substance at 50% competition/Concentration of reference substance at 50% competition"}, "HL 60 cells [2]": {"tested_on": "HL 60 cells", "assay": "differentiation induction of HL 60 cells to macrophages (NBT reduction)", "type": "cell-based, human", "conditions": "DR = test substance dose / calcitriol dose for comparable semi-maximum actions; 96 hours incubation", "description": "The differentiation-stimulating action of calcitriol analogues is also detected quantitatively.\nIt is known in the literature [Mangelsdorf, D. J. et al., J. Cell.\nHL 60 cells are cultivated in tissue culture medium (RPMI 10% fetal calf serum) at 37° C. in an atmosphere of 5% CO2 in air.\nFor substance testing, the cells are centrifuged off, and 2.0×10^5 cells/ml in phenol red-free tissue culture medium is taken up. The test substances are dissolved in ethanol and diluted with tissue culture medium without phenol red to the desired concentration. The dilution stages are mixed with the cell suspension at a ratio of 1:10, and 100 μl each of this cell suspension that is mixed with substance is pipetted into an indentation of a 96-hole plate. For control, a cell suspension is mixed analogously with the solvent.\nAfter incubation for 96 hours at 37° C. in 5% CO2 in air, 100 μl of an NBT-TPA solution (nitro blue tetrazolium (NBT), final concentration in the batch of 1 mg/ml, tetradecanoyl phorbolmyristate-13-acetate (TPA), final concentration in the batch of 2×10^−7 mol/l) is pipetted into each indentation of the 96-hole plate in the cell suspension.\nBy incubation for 2 hours at 37° C. and 5% CO2 in air, NBT is reduced to insoluble formazan because of the intracellular oxygen radical release, stimulated by TPA, in the cells that are differentiated to macrophages.\nTo complete the reaction, the indentations of the 96-hole plate are suctioned off, and the cells are affixed to the bottom of the plate by adding methanol and dried after affixing. To dissolve the intracellular formazan crystals that are formed, 100 μl of potassium hydroxide (2 mol/l) and 100 μl of dimethyl sulfoxide are pipetted into each indentation and ultrasonically treated for 1 minute. The concentration of formazan is measured by spectrophotometry at 650 nm.\nAs a yardstick for the differentiation induction of HL 60 cells to macrophages, the concentration of formed formazan applies."}, "[3]": {"assay": "acute hypercalcemic action in rats (serum calcium)", "type": "in vivo", "conditions": "one-time subcutaneous administration, DR = test substance dose / calcitriol dose for comparable actions", "description": "To determine the acute hypercalcemic action of various calcitriol derivatives, the test that is described below is carried out:\nDuring the testing time, the rats are kept in special cages to determine the excretion of water and mineral substances. Urine is collected in 2 fractions (0-16 hours and 16-22 hours). An oral dose of calcium (0.1 mmol of calcium in 6.5% alpha-hydroxypropylcellulose, 5 ml/animal) replaces at 1600 hours the calcium intake that is lacking by food deprivation. At the end of the test, the animals are killed by decapitation and exsanguinated to determine the serum-calcium values. For the primary screen test in vivo, an individual standard dose (200 μg/kg) is tested. For selected substances, the result is supported by establishing a dose-effect relation.\nA hypercalcemic action is shown in serum-calcium level values that are higher than in the control.\nThe significance of differences between substance groups and controls and between test substance and reference substance are supported with suitable statistical processes."}, "HL 60 cells [4]": {"tested_on": "HL 60 cells", "assay": "antagonism of the action of calcitriol in HL 60 cells", "type": "cell-based, human", "description": "In the series of 25-oxazole derivatives, the compounds with increasing chain length on the heterocycle in the case of constantly good receptor affinity show considerably weaker differentiation-stimulating agonistic activity in HL 60 cells (Tab. 1). […] This property is continued with increasing chain length in radical Z of general formula I."}}, "data": [{"smiles": "C=C1/C(=C\\C=C2/CCC[C@]3(C)[C@@H]([C@H](C)/C=C/[C@@H](O)C4(c5ncc(CCC)o5)CC4)CC[C@@H]23)C[C@@H](O)C[C@@H]1O", "note": "[Compound 14, (5Z,7E,22E)-(1S,3R,24R)-25-(5-Propyloxazol-2-yl)-26,27-cyclo-9,10-secocholesta-5,7,10(19),22-tetraene-1,3,24-triol]", "values": [{"measurement": "Competition Factor KF for Receptor Bonding", "setting": "[1]", "result": 2}, {"measurement": "Dose Ratio for Differentiation Induction in HL 60 Cells", "setting": "HL 60 cells [2]", "result": 1.9}, {"measurement": "dose ratio DR for hypercalcemia", "setting": "[3]", "result": 300}]}, {"smiles": "C=C1C(=CC=C2CCCC3(C)C2CCC3C(C)C=CC(O)C2(c3ncc(C)o3)CC2)CC(O)CC1O", "note": "[Compound 15, (5Z,7E,22E)-(1S,3R,24R)-25-(5-methyloxazol-2-yl)-26,27-cyclo-9,10-secocholesta-5,7,10(19),22-tetraene-1,3,24-triol]", "values": [{"measurement": "Competition Factor KF for Receptor Bonding", "setting": "[1]", "result": 2}, {"measurement": "Dose Ratio for Differentiation Induction in HL 60 Cells", "setting": "HL 60 cells [2]", "result": 3.4}]}, {"smiles": "C=C1/C(=C\\C=C2/CCC[C@]3(C)[C@@H]([C@H](C)/C=C/[C@@H](O)C4(c5ncc(CC)o5)CC4)CC[C@@H]23)C[C@@H](O)C[C@@H]1O", "note": "[Compound 16, (5Z,7E,22E)-(1S,3R,24R)-25-(5-ethyloxazol-2-yl)-26,27-cyclo-9,10-secocholesta-5,7,10(19),22-tetraene-1,3,24-triol]", "values": [{"measurement": "Competition Factor KF for Receptor Bonding", "setting": "[1]", "result": 3}, {"measurement": "Dose Ratio for Differentiation Induction in HL 60 Cells", "setting": "HL 60 cells [2]", "result": 1.3}, {"measurement": "antagonism of the action of calcitriol in HL 60 cells", "setting": "HL 60 cells [4]", "result": "antagonize the action of calcitriol"}]}, {"smiles": "C=C1C(=CC=C2CCCC3(C)C2CCC3C(C)C=CC(O)C2(c3ncc(CCCCC)o3)CC2)CC(O)CC1O", "note": "[Compound 17, (5Z,7E,22E)-(1S,3R,24R)-25-(5-pentyloxazol-2-yl)-26,27-cyclo-9,10-secocholesta-5,7,10(19),22-tetraene-1,3,24-triol]", "values": [{"measurement": "Competition Factor KF for Receptor Bonding", "setting": "[1]", "result": 4}, {"measurement": "Dose Ratio for Differentiation Induction in HL 60 Cells", "setting": "HL 60 cells [2]", "result": ">100"}, {"measurement": "antagonism of the action of calcitriol in HL 60 cells", "setting": "HL 60 cells [4]", "result": "antagonize the action of calcitriol"}]}]}
